Where two headings read alike, the source gives them in different places.
What was measured:
[1] = cited from earlier work
cells [2] = settings: cited from earlier work
[3] = system: cells comprising P-BCMA-101; experiment: In vivo killing of cells comprising P-BCMA-101 via iC9 safety switch in NSG mice (huCD45+ cells in blood, spleen, bone marrow); settings: AP1903 0.005-5 mg/kg on day 12, analysis 24 hours later
Description: FIG. 5 is a diagram showing a study timeline and outline for an in vivo study. NSG mice were IV injected with MM.1S/luciferase^+ cells, staged at day 8, injected with T cells on day 9, and treated with AP1903 (Rimiducid) on day 12 at the indicated doses. 24 hours later, mice were euthanized and blood, spleen, and bone marrow cells were collected and stained for the presence of huCD45^+ cells.
Blood, spleen, and bone marrow cells were analyzed by flow cytometry for the presence of huCD45^+ cells. The relative viability was determined by: ((#of huCD45 cells/ #of msCD45 cells)/(Average of huCD45/msCD45 in no treatment group))*100% per 1,500 bead events for each sample. Each data point represents a different mouse. On the x-axis is plotted percent Relative CAR-T Viability from 0 to 175 in increments of 25. […]
NSG mice were IV injected with MM.1S/luciferase^+ cells, staged at day 8, injected with T cells on day 9, and treated with AP1903 (Rimiducid) on day 12 at the indicated doses. […] Blood, spleen, and bone marrow cells were analyzed by flow cytometry for the presence of huCD45^+ cells. The relative viability was determined by dividing the number of huCD45 cells by the number of msCD45 cells and normalizing to the average of huCD45/msCD45 in the no treatment group times, 100% per 1,500 bead events for each sample. […]

cells [4] = experiment: Amount of AP1903 needed in vitro for effective signaling of cells; format: cell-based; settings: calculated with 1600 Da MW
Description: The fixed dose of AP1903 (Rimiducid) for injection used, for example, may be 0.4 mg/kg intravenously infused over 2 hours. The amount of AP1903 (Rimiducid) needed in vitro for effective signaling of cells is 10-100 nM (1600 Da MW). This equates to 16-160 μg/L or […]. Doses up to 1 mg/kg were well-tolerated in the Phase I study of AP1903 (Rimiducid) described above. Therefore, 0.4 mg/kg may be a safe and effective dose of AP1903 (Rimiducid) for this Phase I study in combination with the therapeutic cells.

Human pan T-cells = experiment: iC9 safety switch test: viability of modified T cells by flow cytometry with 7-AAD after incubation with AP1903; format: cell-based; settings: 24 hours incubation, 0-1000 nM tested
Text: Human pan T-cells were nucleofected using an Amaxa 4D nucleofector with one of four piggyBac transposons. Modified T cells receiving the “mock” condition were nucleofected with an empty piggyBac transposon. Modified T cells received either a piggyBac […] containing a therapeutic agent alone (a sequence encoding a CARTyrin) or a piggyBac […] containing an integrated iC9 sequence and a therapeutic agent (a sequence encoding a CARTyrin).
To test the iC9 safety switch, each of the four modified T cells were incubated for 24 hours with 0, 0.1 nM, 1 nM, 10 nM, 100 nM or 1000 nM AP1903 (an induction agent for […], also known as Rimiducid). Viability was assessed by flow cytometry using 7-aminoactinomycin D (7-AAD), a fluorescent intercalator, as a marker for cells undergoing apoptosis.
Cell viability was assessed at day 12 (see FIG. 2). […] Moreover, cell viability was assessed at day 19 (see FIG. 3). […]
A quantification of the aggregated results was performed and is provided in FIG. 4, showing the significant impact of the iC9 safety switch on the percent cell viability as a function of the concentration of the induction agent (AP1903, also known as Rimiducid) of the iC9 switch for each modified cell type at either day 12 (FIG. 2 and left graph) or day 19 (FIG. 3 and right graph).

## CC[C@H](C(=O)N1CCCC[C@H]1C(=O)O[C@H](CCc1ccc(OC)c(OC)c1)c1cccc(OCC(=O)NCCNC(=O)COc2cccc([C@@H](CCc3ccc(OC)c(OC)c3)OC(=O)[C@@H]3CCCCN3C(=O)[C@@H](CC)c3cc(OC)c(OC)c(OC)c3)c2)c1)c1cc(OC)c(OC)c(OC)c1 (relative stereo) [AP1903, 2-Piperidinecarboxylic acid, 1-[(2S)-1-oxo-2-(3,4,5-trimethoxyphenyl)butyl]-, 1,2-ethanediylbis[imino (2-oxo-2,1-ethanediyl)oxy-3,1-phenylene[(1R)-3-(3,4-dimethoxyphenyl)propylidene]]ester, [2S-[1(R*),2R*[S*[S*[1(R*),2R*]]]]]-(9C1)]
[1]; 0.01, 0.05, 0.1, 0.5 and 1.0 mg/kg
  plasma levels versus dose: directly proportional to dose
[1]; 0.5 hours post-dose
  plasma level as % of maximal concentration: approximately 18%
[1]; 2 hours post-dose
  plasma level as % of maximal concentration: ~7%
[1]; 10 hours post-dose
  plasma level as % of maximal concentration: ~1%
[1]; Phase I study
  well-tolerated dose: up to 1 mg/kg
[1]; all dose levels 0.01-1.0 mg/kg, single dose IV over 2 hours
  safety and tolerability: safe and well tolerated at all dose levels
[1]; healthy volunteers
  pharmacokinetic profile: favorable pharmacokinetic profile
[1]; over the 0.01-1.0 mg/kg dose range, IV infusion over 2 hours, 24 healthy volunteers
  mean Cmax: 10 to 1275 ng/mL
Cells [2]
  amount needed in vitro for effective signaling of cells: 10 to 100 nM
[3]
  killing of cells comprising P-BCMA-101 in vivo: highly efficient killing
Cells [4]
  amount needed for effective signaling, converted to dose: 0.016 to 1.6 µg/kg
  amount needed for effective signaling, converted to mass concentration: 16 to 160 µg/L
Human pan T-cells
  lowest concentration of the study at which apoptosis is induced: 0.1 nM

— US12358966B2, “Inducible caspases and methods for use” (Poseida Therapeutics, Inc., priority 2016, dated 2025)
